Test systems include SK-OV-3 ovarian; U251 CNS; HOP-92 NSCLC; NCI-H226 lung; LOX IMVI melanoma; RXF 393 renal; HOP-62 NSCLC; K-562 leukemia; SW-620 colon; SF-295 CNS.
Holding throughout (assay): NCI-60 cell line screen, 48 h

Where “and” joins values, the source holds several entries; their conditions need not be identical. Identical values can stand only once.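 Each compound was tested at five concentrations against cells in 96-well plates for 48 hours. GI50 marks 50% less growth. TGI: total growth inhibition.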 Where only a bound is given, the exact number is not on record here.

As for `O=C(Nc1ccc(F)cc1)C(=O)C(C1OC(=O)c2ccccc21)[N+](=O)[O-]` (stereo not given), the TGI in the test on SK-OV-3 ovarian, with U251 CNS, in the test on HOP-92 NSCLC, in the test with NCI-H226 lung, with LOX IMVI melanoma and in the test with RXF 393 renal was above 100000 nM each time. Further, the TGI in the test on HOP-62 NSCLC, with K-562 leukemia, with SW-620 colon and with SF-295 CNS was above 100000 nM in each case.

For `c1cc(OCCN2CCCCC2)ccc1CNc1ccc2nc(CCC3CCCCC3)[nH]c2c1`, the GI50 in the test with SK-OV-3 ovarian was 2070 nM; with U251 CNS it was 1490 nM; in the test on HOP-92 NSCLC it was 565 nM; with NCI-H226 lung it was 1830 nM; in the test with LOX IMVI melanoma it was 1750 nM; in the test with RXF 393 renal, 1500 nM. In addition, the GI50 was 1790 nM in the test with HOP-62 NSCLC, 852 nM in the test on K-562 leukemia, 1820 nM with SW-620 colon and 1980 nM in the test with SF-295 CNS. The TGI in the test on SK-OV-3 ovarian was 4180 nM; in the test with U251 CNS, 2940 nM; in the test with HOP-92 NSCLC, 2450 nM; with NCI-H226 lung, 4290 nM; in the test with LOX IMVI melanoma, 3190 nM; with RXF 393 renal, 3490 nM. The TGI in the test with HOP-62 NSCLC is 3400 nM; with K-562 leukemia, 3600 nM; in the test on SW-620 colon, 3840 nM; in the test on SF-295 CNS, 3880 nM.

Consider `COc1ccc(C2=C(c3ccc(OC)c(OC)c3)C(=O)OC2)cc1`, for which the TGI in the test with SK-OV-3 ovarian was above 100000 nM; in the test on U251 CNS it was above 59600 nM; in the test on HOP-92 NSCLC it was 32600 nM; in the test on NCI-H226 lung it was 2920 nM; in the test with LOX IMVI melanoma, above 39100 nM; with RXF 393 renal, above 100000 nM. The compound further displayed a TGI in the test on SW-620 colon above 100000 nM. Also, the GI50 in the test on U251 CNS was below 10 nM; in the test with HOP-92 NSCLC, 3480 nM; with NCI-H226 lung, 16.9 nM; in the test on LOX IMVI melanoma, below 10 nM; in the test with RXF 393 renal, 79.2 nM; in the test on HOP-62 NSCLC it was below 10 nM. For the same compound, the GI50 in the test with K-562 leukemia was below 10 nM; with SF-295 CNS, below 49.6 nM.

`C[C@]12CC[C@H](OCCC#N)CC1=CC[C@@H]1C2CC[C@]2(C)/C(=N/OCCC#N)CCC12` (stereo not given in full): the TGI with SK-OV-3 ovarian was above 100000 nM; in the test with U251 CNS, above 100000 nM; in the test with HOP-92 NSCLC, above 64400 nM; in the test on NCI-H226 lung, above 100000 nM; in the test on LOX IMVI melanoma, above 100000 nM; in the test on RXF 393 renal, above 73900 nM. Moreover, the TGI in the test on HOP-62 NSCLC, with K-562 leukemia, with SW-620 colon and with SF-295 CNS was above 100000 nM in each case.

`Cc1ccc(/C=C/C(=O)c2sc(-c3cccnc3)nc2C)cc1`: the TGI with SK-OV-3 ovarian, with U251 CNS, with HOP-92 NSCLC, in the test on NCI-H226 lung, in the test on LOX IMVI melanoma and with RXF 393 renal was above 100000 nM in each case. Further, the TGI in the test with HOP-62 NSCLC, in the test on K-562 leukemia, in the test with SW-620 colon and in the test with SF-295 CNS was above 100000 nM each time.

Regarding `CCOC(=O)NC(=O)c1cn(CCCOC(=O)CCCCCCCCCCC(=O)OCCCn2cc(C(=O)NC(=O)OCC)c(=O)n(C)c2=O)c(=O)n(C)c1=O`, the TGI with SK-OV-3 ovarian, in the test on U251 CNS, in the test with HOP-92 NSCLC, in the test on NCI-H226 lung, in the test on LOX IMVI melanoma and in the test with RXF 393 renal was above 100000 nM each time. For the same compound, the TGI in the test on HOP-62 NSCLC, in the test with K-562 leukemia, in the test with SW-620 colon and with SF-295 CNS was above 100000 nM in each case.

For the compound `O=c1[nH]ccc2nc(N3CCC(O)CC3)nc(Nc3cccc(C(F)(F)F)c3)c12`, the GI50 in the test with SK-OV-3 ovarian is 486 nM; in the test on U251 CNS, 6150 nM; in the test with HOP-92 NSCLC, above 100000 nM; in the test with NCI-H226 lung it was 3200 nM; with LOX IMVI melanoma it was 1420 nM; in the test on RXF 393 renal, 1450 nM. For the same compound, the GI50 in the test with HOP-62 NSCLC is 4400 nM; in the test with K-562 leukemia, 3140 nM; in the test on SW-620 colon, 1910 nM; in the test on SF-295 CNS it was 2940 nM. Further, the TGI is above 100000 nM in the test on SK-OV-3 ovarian; above 100000 nM with U251 CNS; above 100000 nM in the test on HOP-92 NSCLC; 17700 nM with NCI-H226 lung; 16600 nM with LOX IMVI melanoma; 23200 nM in the test with RXF 393 renal. Besides, the TGI in the test on HOP-62 NSCLC was 18800 nM; in the test with K-562 leukemia it was above 100000 nM; in the test on SW-620 colon it was 12900 nM; in the test on SF-295 CNS it was 7850 nM.

Take `CN(C)C1CCN(C(=O)c2ccc(NC(=O)Nc3ccc(-c4nc(N5CCOCC5)nc(N5CCOCC5)n4)cc3)cc2)CC1`: the GI50 with SK-OV-3 ovarian is < 10 nM and 7.32 nM and 20.4 nM; in the test on U251 CNS it was 17.1 nM and 11.6 nM and 37.5 nM; with HOP-92 NSCLC, < 10 nM and 6.27 nM and 13.8 nM; in the test on LOX IMVI melanoma, < 10 nM and 11.1 nM and 29.6 nM; in the test on RXF 393 renal, 23 nM and 27.1 nM and 210 nM; with HOP-62 NSCLC, 22 nM and 102 nM and 32.4 nM. For the same compound, the GI50 with K-562 leukemia was 130 nM and 35.7 nM and 132 nM; in the test on SW-620 colon it was 34.6 nM and 68.9 nM and 30 nM; in the test with SF-295 CNS it was 73.2 nM and 71.1 nM and 639 nM. The TGI is 48.5 nM and 43.4 nM and 188 nM in the test with SK-OV-3 ovarian; 15100 nM and 2500 nM and 2440 nM in the test on U251 CNS; 28.8 nM and 54.4 nM and 116 nM in the test with HOP-92 NSCLC; 380 nM and 1950 nM and 257 nM in the test on NCI-H226 lung; 382 nM and 1900 nM and 1100 nM in the test on HOP-62 NSCLC; 577 nM and 502 nM and 3520 nM in the test on SF-295 CNS.

These data come from PubChem BioAssay (NCI).
